Experimental data from PubChem BioAssay AID2060500 (Molecular Pharmacology Branch, DTP, NCI, 2025).

Tested on: 596521-263-R-J1-PDC complex spheroids, viability % of control
Assay: Anticancer human tumor 596521-263-R-J1-PDC patient-derived soft tissue sarcoma cell line growth inhibition [GQUAD]
Conditions: for IC50: curve of first compound; for viability, T/C: stronger effect = lower value
Summary of the method: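 Multi-cell-type spheroids of tumor cells with HUVEC and mesenchymal stem cells, treated with drug combinations. Concentrations descend in half-log steps from near clinical Cmax, or from 10 microM where Cmax is unknown; viability read-out.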

[1] = second compound 0.0316 µM, first compound 0.0316 µM
[2] = second compound 0.0316 µM, first compound 0.1 µM
[3] = second compound 0.0316 µM, first compound 0.316 µM
[4] = second compound 0.0316 µM, first compound 1 µM
[5] = second compound 0.0316 µM, first compound 3.16 µM
[6] = second compound 0.0316 µM, first compound 10 µM
[7] = second compound 0.1 µM, first compound 0.0316 µM
[8] = second compound 0.1 µM, first compound 0.1 µM
[9] = second compound 0.1 µM, first compound 0.316 µM
[10] = second compound 0.1 µM, first compound 1 µM
[11] = second compound 0.1 µM, first compound 3.16 µM
[12] = second compound 0.1 µM, first compound 10 µM
[13] = second compound 0.316 µM, first compound 0.0316 µM
[14] = second compound 0.316 µM, first compound 0.1 µM
[15] = second compound 0.316 µM, first compound 0.316 µM
[16] = second compound 0.316 µM, first compound 1 µM
[17] = second compound 0.316 µM, first compound 3.16 µM
[18] = second compound 0.316 µM, first compound 10 µM
[19] = second compound 1 µM, first compound 0.0316 µM
[20] = second compound 1 µM, first compound 0.1 µM
[21] = second compound 1 µM, first compound 0.316 µM
[22] = second compound 1 µM, first compound 1 µM
[23] = second compound 1 µM, first compound 3.16 µM
[24] = second compound 1 µM, first compound 10 µM
[25] = second compound 3.16 µM, first compound 0.0316 µM
[26] = second compound 3.16 µM, first compound 0.1 µM
[27] = second compound 3.16 µM, first compound 0.316 µM
[28] = second compound 3.16 µM, first compound 1 µM
[29] = second compound 3.16 µM, first compound 3.16 µM
[30] = second compound 3.16 µM, first compound 10 µM
[31] = second compound 10 µM, first compound 0.0316 µM
[32] = second compound 10 µM, first compound 0.1 µM
[33] = second compound 10 µM, first compound 0.316 µM
[34] = second compound 10 µM, first compound 1 µM
[35] = second compound 10 µM, first compound 3.16 µM
[36] = second compound 10 µM, first compound 10 µM
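Note: spheroids exposed to drugs for 7 days before viability reading.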
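Throughout, for viability, T/C: 100% = DMSO vehicle control viability.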

SMILES: CCCS(=O)(=O)Nc1ccc(F)c(C(=O)c2c[nH]c3ncc(-c4ccc(Cl)cc4)cc23)c1F + Cc1[nH]c2ccc(F)cc2c1-c1nc2c3cccnc3c3ncccc3c2[nH]1
- IC50 (second compound 0.0316 µM): 504 nM
- IC50 (second compound 0.1 µM): 358 nM
- IC50 (second compound 0.316 µM): 836 nM
- IC50 (second compound 1 µM): 498 nM
- IC50 (second compound 3.16 µM): 376 nM
- IC50 (second compound 10 µM): 419 nM
- viability, T/C [1]: 107%
- viability, T/C [2]: 73.5%
- viability, T/C [3]: 56.2%
- viability, T/C [4]: 41.7%
- viability, T/C [5]: 40.5%
- viability, T/C [6]: 40.2%
- viability, T/C [7]: 89.3%
- viability, T/C [8]: 74.2%
- viability, T/C [9]: 51.8%
- viability, T/C [10]: 36.8%
- viability, T/C [11]: 42.8%
- viability, T/C [12]: 31.1%
- viability, T/C [13]: 112%
- viability, T/C [14]: 81.4%
- viability, T/C [15]: 61.1%
- viability, T/C [16]: 44.4%
- viability, T/C [17]: 46.3%
- viability, T/C [18]: 33.1%
- viability, T/C [19]: 84.4%
- viability, T/C [20]: 81.6%
- viability, T/C [21]: 57.2%
- viability, T/C [22]: 38.4%
- viability, T/C [23]: 44.4%
- viability, T/C [24]: 29.7%
- viability, T/C [25]: 92.6%
- viability, T/C [26]: 70.4%
- viability, T/C [27]: 53.2%
- viability, T/C [28]: 37.6%
- viability, T/C [29]: 37.9%
- viability, T/C [30]: 32%
- viability, T/C [31]: 74.6%
- viability, T/C [32]: 58.5%
- viability, T/C [33]: 58%
- viability, T/C [34]: 38.1%
- viability, T/C [35]: 39.3%
- viability, T/C [36]: 30.4%

SMILES: COc1cc(C2c3cc4c(cc3C(OC3OC5COC(C)OC5C(O)C3O)C3COC(=O)C23)OCO4)cc(OC)c1O (stereo unspecified) + Cc1[nH]c2ccc(F)cc2c1-c1nc2c3cccnc3c3ncccc3c2[nH]1
- IC50 (second compound 0.0316 µM): 5370 nM
- IC50 (second compound 0.1 µM): > 10000 nM
- IC50 (second compound 0.316 µM): > 10000 nM
- IC50 (second compound 1 µM): 5420 nM
- IC50 (second compound 3.16 µM): 8310 nM
- IC50 (second compound 10 µM): 970 nM
- viability, T/C [1]: 107%
- viability, T/C [2]: 78.9%
- viability, T/C [3]: 78.4%
- viability, T/C [4]: 66.8%
- viability, T/C [5]: 51.6%
- viability, T/C [6]: 45.8%
- viability, T/C [7]: 93%
- viability, T/C [8]: 86.8%
- viability, T/C [9]: 79.3%
- viability, T/C [10]: 66.3%
- viability, T/C [11]: 58.3%
- viability, T/C [12]: 53.3%
- viability, T/C [13]: 93.4%
- viability, T/C [14]: 104%
- viability, T/C [15]: 87.3%
- viability, T/C [16]: 54.1%
- viability, T/C [17]: 57.9%
- viability, T/C [18]: 50.3%
- viability, T/C [19]: 102%
- viability, T/C [20]: 85.2%
- viability, T/C [21]: 79.5%
- viability, T/C [22]: 60.9%
- viability, T/C [23]: 55.7%
- viability, T/C [24]: 44.8%
- viability, T/C [25]: 92.8%
- viability, T/C [26]: 82%
- viability, T/C [27]: 79.3%
- viability, T/C [28]: 60.3%
- viability, T/C [29]: 63.6%
- viability, T/C [30]: 46.4%
- viability, T/C [31]: 67.4%
- viability, T/C [32]: 64.3%
- viability, T/C [33]: 65%
- viability, T/C [34]: 49.2%
- viability, T/C [35]: 43.9%
- viability, T/C [36]: 39.5%

SMILES: COc1cccc2c1C(=O)c1c(O)c3c(c(O)c1C2=O)CC(O)(C(=O)CO)CC3OC1CC(N)C(O)C(C)O1 (stereo unspecified) + Cc1[nH]c2ccc(F)cc2c1-c1nc2c3cccnc3c3ncccc3c2[nH]1
- IC50 (second compound 0.0316 µM): 719 nM
- IC50 (second compound 0.1 µM): 655 nM
- IC50 (second compound 0.316 µM): 802 nM
- IC50 (second compound 1 µM): 578 nM
- IC50 (second compound 3.16 µM): 965 nM
- IC50 (second compound 10 µM): 700 nM
- viability, T/C [1]: 98%
- viability, T/C [2]: 76.6%
- viability, T/C [3]: 64%
- viability, T/C [4]: 48.9%
- viability, T/C [5]: 26.6%
- viability, T/C [6]: 3.55%
- viability, T/C [7]: 93.8%
- viability, T/C [8]: 77%
- viability, T/C [9]: 57.9%
- viability, T/C [10]: 44.9%
- viability, T/C [11]: 29.7%
- viability, T/C [12]: 4.66%
- viability, T/C [13]: 112%
- viability, T/C [14]: 70.3%
- viability, T/C [15]: 68%
- viability, T/C [16]: 54.5%
- viability, T/C [17]: 27.1%
- viability, T/C [18]: 3.9%
- viability, T/C [19]: 96.5%
- viability, T/C [20]: 66.5%
- viability, T/C [21]: 59.2%
- viability, T/C [22]: 50.4%
- viability, T/C [23]: 25.6%
- viability, T/C [24]: 4.37%
- viability, T/C [25]: 82.7%
- viability, T/C [26]: 68.9%
- viability, T/C [27]: 63.2%
- viability, T/C [28]: 54.9%
- viability, T/C [29]: 25.7%
- viability, T/C [30]: 3.86%
- viability, T/C [31]: 75.1%
- viability, T/C [32]: 62.4%
- viability, T/C [33]: 62.6%
- viability, T/C [34]: 45.9%
- viability, T/C [35]: 25.6%
- viability, T/C [36]: 3.33%
